Measured values taken from patent publication EP3543705A1, “MITOCHONDRIAL PH PROBE” (priority 2018, dated 2019).

Legend:
[1] = pH dependence of fluorescence at 520 nm of the active probe (pKa study); type: physicochemical; details: PBS buffer with 5% BSA, estimated
Method: The pH dependence for fluorescence at 520 nm of 5FA-PIP-Cy5, the active form of 5FA-PIP-Cy5-DA was measured with 5FA-PIP-Cy5 dissolved in a PBS buffer with 5% BSA. (see Figure 3). From this study the pKa of the active form was estimated to be 6.88. This value is within expectable range for the fluorescein moiety containing electron-donor amide group and is within the physiologically relevant range of 6.5 - 8.5.

A2780 cells [2] = test: mitochondrial staining with the inactive (caged) form versus the active form; type: cell-based; details: 2uM, identical conditions
[3] = tested on: mitochondria of A2780 ovarian cancer cell line; test: fluorescein/Cy5 fluorescence ratio in stained live cells treated with nigericin or FCCP; type: cell-based; details: 300 nM FCCP or 2uM nigericin versus DMSO vehicle control; cells stained with 2 µM 5FA-PIP-Cy5-DA
Method: A2780 ovarian cancer cells were cultured in 24-well microscopy glass bottom plates in a CO2 incubator. […] Separate fluorescent images in green (488/520 nm) and deep red (640/660 nm) spectral channels were acquired on Visitron W1 spinning disk confocal microscope. The florescence ratio was quantified using a specifically designed batch ImageJ plugin. This software thresholds the pH-independent Cy5 channel, quantifies the fluorescence intensity in the thresholded image areas, and uses the thresholded mask to quantify the intensity of pH-dependent 5Fluo channel. The intensity ratio is then used to estimate the mitochondrial pH of the cells. […] Typical pH variations in mitochondria of A2780 ovarian cancer cell line are represented at Figure 4. Typical staining procedure is described further. […] All images are maximum intensity projection. […] The mitochondrial staining on Figure 4A is very homogeneous. […] The mitochondrial staining on Figure 4B is very heterogeneous, unlike the Figure 4A. Figure 4C represents the overlap image of Figure 4A and Figure 4B. Bluish hint Figure 4C corresponds to relatively high mitochondrial pH, reddish to relatively low mitochondrial pH. Figure 4D represents bright field image. […] Confocal images were acquired for control, FCCP- and nigericin-treated cell samples, and the ratio between fluorescein and Cy5 channel fluorescence was quantified.

[4] = tested on: mitochondria of A2780 ovarian cancer cell line; test: probe calibration in defined-pH buffers: collapse of the mitochondrial pH gradient; type: cell-based; details: stained cells in high K+ buffers, pH range 6.73 to 8.36
Method: A2780 ovarian cancer cells were cultured in 24-well microscopy glass bottom plates in a CO2 incubator. Prior to imaging, the cells were stained with 2uM 5FA-PIP-Cy5-DA, and/or TMRM (20nM) for 30 min in bicarbonate-free DMEM medium to avoid extracellular pH fluctuations, then washed with the same medium (without 5FA-PIP-Cy5-DA) and imaged with confocal spinning disk microscopy at 60x magnification When TMRM was used, this dye was also present in the bicarbonate-free DMEM medium during the imaging of the cells. Separate fluorescent images in green (488/520 nm) and deep red (640/660 nm) spectral channels were acquired on Visitron W1 spinning disk confocal microscope. The florescence ratio was quantified using a specifically designed batch ImageJ plugin. This software thresholds the pH-independent Cy5 channel, quantifies the fluorescence intensity in the thresholded image areas, and uses the thresholded mask to quantify the intensity of pH-dependent 5Fluo channel. The intensity ratio is then used to estimate the mitochondrial pH of the cells. Calibration of the intensity ratio was achieved through the staining of A2780 cells in a series of PBS - 5% BSA buffers with defined pH, containing 20mM HEPES and 5uM FCCP, to equilibrate the mitochondrial pH with the pH of the buffer.
The stained cells were treated with FCCP in high K^+ buffers in a pH range of 6.73 to 8.36.

LT-HSC = test: mitochondrial pH of hematopoietic stem cells in different culture conditions, measured with 5FA-PIP-Cy5-DA; type: cell-based, mice; details: LT-HSC cultured with 5 uM DMOG or IL-3 20 ng/mL and IL-6 100ng/mL, compared with basal medium, ST-HSC and MPP
Description: For LT-HSC cells, three different culture conditions (basal medium, DMOG-induced chemical hypoxia and IL-3, IL-6 - induced differentiation) were examined. The calibration curve for the ratio of 5Fluoro/Cy5 fluorescence was obtained using FCCP and a PBS-5% BSA buffer with MPP cells in a manner analogous to the method described in Example 2 (see Figure 10). Fresh cells, extracted from bone marrow of 8-12 week old male mice were stained on ice for surface cell markers and sorted by FACS, according to the following phenotypes: LT-HSC Lin- cKit+ Sca1+ CD150+ CD34- CD48-; ST-HSC Lin- cKit+ Sca1 + CD150+ CD34+; MPP Lin- cKit+ Sca1 + CD150- CD34+. The cells were cultured in Hematopoietic Stemline II (Sigma) medium with addition of SCF and Flt-3 cytokines. For appropriate experiments, additionally 5 uM DMOG or IL-3 20 ng/mL and IL-6 100ng/mL cytokines were added. […] Separate fluorescent images in green and deep red spectral channels were acquired. The florescence ratio was quantified by a specifically designed batch ImageJ plugin as described above.

A2780 cells [5] = test: mitochondrial pH of drug-treated cells, measured with 5FA-PIP-Cy5-DA; type: cell-based
Description: The calibration curve for the ratio of 5Fluoro/Cy5 fluorescence was obtained using FCCP and a PBS-5% BSA buffer with A2780 cells in a manner analogous to the method described in Example 2 (see Figure 12). The quantifying of mitochondrial pH in the presence of the drug and after the drug was washed away allowed the distinction between interference with mitochondrial metabolism and general cytotoxicity. If the effect of the drug was primarily to affect mitochondrial metabolism it was expected that the mitochondrial pH would quickly return to the non-treated cell level following removal of the drug, providing the drug had no other significant cytotoxic effects. Conversely, if the effect of the drug were not reversed by the washing step, an observed alteration of mitochondrial pH could be interpreted at least partially as a downstream consequence of the general cytotoxicity of the drug. A2780 cells were cultured in 24-well microscopy glass bottom plates in RPMI medium, containing Glutamax with 10% FBS addition. The cells were treated with appropriate 800uM […] or 5uM cisplatin. […] If the drug was not washed away prior to staining, it remained present in the medium through the whole imaging time. Separate fluorescent images in green and deep red spectral channels were acquired. The florescence ratio was quantified by a specifically designed batch ImageJ plugin as described above. Statistical analysis was performed using 1-way ANOVA with Bonferroni-Holm post-hoc analysis.

[6] = after the drug was washed away, treated one day with 800uM RAPTA-T or 5uM cisplatin, control cells pH 8.4
[7] = in the presence of the drug, treated one day with 800uM RAPTA-T or 5uM cisplatin, control cells pH 8.4

In the case of `CN1C(=CC=CC=CC2=[N+](CCCCCC(=O)N3CCN(CC(=O)Nc4ccc5c(c4)C(=O)OC54c5ccc(O)cc5Oc5cc(O)ccc54)CC3)c3ccccc3C2(C)C)C(C)(C)c2ccccc21` [5FA-PIP-Cy5], the “pKa of the active form” value [1] is reported as 6.88 and the staining of mitochondria (A2780 cells [2]) is reported as “absolutely no staining of mitochondria”.

For `CO[C@@H]1C[C@@H](C[C@H]2CC[C@H](C)[C@H]([C@@H](C)C(=O)O)O2)O[C@]2(O[C@](C)([C@H]3CC[C@@](C)([C@@H]4O[C@@H]([C@H]5O[C@@](O)(CO)[C@H](C)C[C@@H]5C)C[C@@H]4C)O3)C[C@H]2C)[C@@H]1C` [nigericin], the 5Fluo-Cy5 ratio [3] was “clear measurable decrease” and the “collapse of the mitochondrial pH gradient” value [4] was “no full gradient collapse”.

With `N#CC(C#N)=NNc1ccc(OC(F)(F)F)cc1` [FCCP, carbonylcyanide-4-trifluoromethoxyphenylhydrazone] the 5Fluo-Cy5 ratio [3] was “clear measurable decrease” and the “collapse of the mitochondrial pH gradient” value [4] was “full collapse of the mitochondrial pH gradient”.

In the case of `COC(=O)CNC(=O)C(=O)OC` [DMOG], the “average mitochondrial pH” value (LT-HSC) is reported as “the same level of average mitochondrial pH”.

In the case of `CC[C@H]1/C=C/C=C/C[C@@H](C)[C@H](O)[C@@](C)(O)C(=O)[C@@H](C)[C@H](O)[C@@H](C)C(=O)[C@@H](C)[C@H](O)[C@@H](C)/C=C/C(=O)O[C@@H]2[C@H](C)[C@H](CC1)O[C@]1(CC[C@H](C)[C@H](C[C@@H](C)O)O1)[C@H]2C` [oligomycin], the “mitochondrial pH” value (A2780 cells [5]; addition of 10µm oligomycin, increase from 8.4) is reported as “around 8.5”.

For `N.N.[Cl][Pt][Cl]` [cisplatin], the “mitochondrial pH” value (A2780 cells [5]; [6]) was 8.0 and the “mitochondrial pH” value (A2780 cells [5]; [7]) was 7.8.

For `Cc1ccccc1.[Cl][Ru]([Cl])[PH]12CN3CN(CN(C3)C1)C2` [RAPTA-T], the “mitochondrial pH” value (A2780 cells [5]; [6]) was 8.4 and the “mitochondrial pH” value (A2780 cells [5]; [7]) was 8.0.
